20 molecules from patent publication US11247990B1, “Bicyclic fused pyridine compounds as inhibitors of TAM kinases” (ARRAY BIOPHARMA INC., priority 2017, dated 2022) can be followed below.

One may read the IC50 as the point on the concentration scale where inhibition reaches its midpoint.

The structures appear in SMILES notation. Some results are limits rather than exact numbers.

Holding throughout (settings): averaged IC50
The target of assay [1] is His-tagged recombinant human AXL cytoplasmic domain (Homo sapiens (Human), UniProt P30530). Kind of assay: AXL Enzyme Assay (LanthaScreen Eu Kinase Binding, TR-FRET). The method, boiled down:
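Compound displacement measured by TR-FRET after 60 min at 22 °C, using Eu-based LanthaScreen binding technology. Ratiometric emission converted to percent of control, fitted to a 4-parameter logistic curve, with IC50 at 50 POC.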

In assay [2] the target is His-tagged recombinant human MER cytoplasmic domain (Homo sapiens (Human), UniProt Q12866). Kind of assay: MER Enzyme Assay (LanthaScreen Eu Kinase Binding, TR-FRET). In a few lines: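 Percent of control, derived from ratiometric TR-FRET emission, was fitted to a 4-parameter logistic curve and IC50 taken at 50 POC. Binding was read after 60 min at 22 °C using Eu-based LanthaScreen technology and recombinant His-tagged MER cytoplasmic domain.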
On the technique in general: Time-resolved FRET reads energy transfer from a long-lived donor to a nearby acceptor.

For assay [3], the target named is GST-tagged recombinant human TYRO3 kinase domain (Homo sapiens (Human), UniProt Q06418). As to the kind of experiment: TYRO3 Enzyme Assay (LanthaScreen Eu Kinase Binding, TR-FRET). In a few lines: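 LanthaScreen Eu binding (tracer displacement) format read by TR-FRET after 60 min at 22 °C. Emission ratio converted to percent of control; IC50 taken where a 4-parameter logistic fit crosses 50 POC.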
Sequence of GST-tagged recombinant human TYRO3 kinase domain (Q06418 518-790): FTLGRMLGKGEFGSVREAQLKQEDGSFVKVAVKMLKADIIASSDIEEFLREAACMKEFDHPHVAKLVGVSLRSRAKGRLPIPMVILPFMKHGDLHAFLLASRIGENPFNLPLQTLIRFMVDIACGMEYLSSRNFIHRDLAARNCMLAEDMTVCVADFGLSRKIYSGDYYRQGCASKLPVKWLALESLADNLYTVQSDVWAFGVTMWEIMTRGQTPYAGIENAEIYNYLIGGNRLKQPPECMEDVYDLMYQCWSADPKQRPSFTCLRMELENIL

Sequence of His-tagged recombinant human MER cytoplasmic domain (Q12866 527-999): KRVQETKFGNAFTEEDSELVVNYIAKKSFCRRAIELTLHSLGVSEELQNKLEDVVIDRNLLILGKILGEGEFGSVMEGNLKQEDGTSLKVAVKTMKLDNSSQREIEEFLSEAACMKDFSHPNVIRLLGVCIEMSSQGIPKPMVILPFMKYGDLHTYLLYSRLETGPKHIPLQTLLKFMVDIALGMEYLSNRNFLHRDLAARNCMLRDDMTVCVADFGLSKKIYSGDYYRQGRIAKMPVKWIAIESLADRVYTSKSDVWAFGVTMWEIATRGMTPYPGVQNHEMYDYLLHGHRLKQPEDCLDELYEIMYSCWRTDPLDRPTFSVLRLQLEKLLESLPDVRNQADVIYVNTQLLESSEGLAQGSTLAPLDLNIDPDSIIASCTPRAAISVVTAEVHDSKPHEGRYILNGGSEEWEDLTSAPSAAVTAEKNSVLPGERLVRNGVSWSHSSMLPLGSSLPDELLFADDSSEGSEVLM
Sequence of His-tagged recombinant human AXL cytoplasmic domain (P30530 473-894): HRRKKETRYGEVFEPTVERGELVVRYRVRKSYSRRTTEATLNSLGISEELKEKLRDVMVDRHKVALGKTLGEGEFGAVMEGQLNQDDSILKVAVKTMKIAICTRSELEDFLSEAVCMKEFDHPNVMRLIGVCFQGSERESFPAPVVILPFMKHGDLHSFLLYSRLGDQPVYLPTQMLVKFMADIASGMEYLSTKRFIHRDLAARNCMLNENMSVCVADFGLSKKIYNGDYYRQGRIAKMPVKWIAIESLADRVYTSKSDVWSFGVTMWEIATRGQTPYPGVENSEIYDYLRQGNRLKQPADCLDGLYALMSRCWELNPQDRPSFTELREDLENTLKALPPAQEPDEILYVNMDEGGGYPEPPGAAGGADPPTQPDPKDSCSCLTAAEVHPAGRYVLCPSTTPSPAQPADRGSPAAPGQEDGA

For `CCNc1cc2c(cn1)c(C1CCN(C)CC1)nn2[C@H]1CC[C@@H](Oc2nccc(C(F)(F)F)c2F)CC1` [Example 316, N-ethyl-1-((1s,4s)-4-((3-fluoro-4-(trifluoromethyl)pyridin-2-yl)oxy)cyclohexyl)-3-(1-methylpiperidin-4-yl)-1H-pyrazolo[4,3-c]pyridin-6-amine], the IC50 is below 10 nM in assay [1], below 10 nM in assay [2] and 10 to 100 nM in assay [3].

For `CCNc1cc2c(cn1)c(C1CCNCC1)nn2[C@H]1CC[C@@H](Oc2nccc(C(F)(F)F)c2F)CC1` [Example 319, N-ethyl-1-((1s,4s)-4-((3-fluoro-4-(trifluoromethyl)pyridin-2-yl)oxy)cyclohexyl)-3-(piperidin-4-yl)-1H-pyrazolo[4,3-c]pyridin-6-amine], the IC50 in assay [1], in assay [2] and in assay [3] was below 10 nM throughout.

For `CCNc1cc2c(cn1)c(C1CCNC1)nn2[C@H]1CC[C@@H](Oc2nccc(C(F)(F)F)c2F)CC1` (stereo partly drawn) [Example 320, N-ethyl-1-((1s,4s)-4-((3-fluoro-4-(trifluoromethyl)pyridin-2-yl)oxy)cyclohexyl)-3-(pyrrolidin-3-yl)-1H-pyrazolo[4,3-c]pyridin-6-amine], the IC50 in assay [1] was below 10 nM; in assay [2], below 10 nM; in assay [3] it was 10 to 100 nM.

Regarding `CCNc1cc2c(cn1)c(C1CCCN(C)C1)nn2[C@H]1CC[C@@H](Oc2nccc(C(F)(F)F)c2F)CC1` (stereo partly drawn) [Example 324, N-ethyl-1-((1s,4s)-4-((3-fluoro-4-(trifluoromethyl)pyridin-2-yl)oxy)cyclohexyl)-3-(1-methylpiperidin-3-yl)-1H-pyrazolo[4,3-c]pyridin-6-amine], the IC50 in assay [1] was below 10 nM; in assay [2], below 10 nM; in assay [3], 10 to 100 nM.

As to `CCNc1cc2c(cn1)c(C1CCN(C)C1)nn2[C@H]1CC[C@@H](Oc2nccc(C(F)(F)F)c2F)CC1` (stereo partly drawn) [Example 325, N-ethyl-1-((1s,4s)-4-((3-fluoro-4-(trifluoromethyl)pyridin-2-yl)oxy)cyclohexyl)-3-(1-methylpyrrolidin-3-yl)-1H-pyrazolo[4,3-c]pyridin-6-amine], the results for the IC50 in assay [1], in assay [2] and in assay [3] were below 10 nM, below 10 nM and 10 to 100 nM, respectively.

Turning to `CCNc1cc2c(cn1)c(C1CCN(C(C)C)CC1)nn2[C@H]1CC[C@@H](Oc2nccc(C(F)(F)F)c2F)CC1` [Example 326, N-ethyl-1-((1s,4s)-4-((3-fluoro-4-(trifluoromethyl)pyridin-2-yl)oxy)cyclohexyl)-3-(1-isopropylpiperidin-4-yl)-1H-pyrazolo[4,3-c]pyridin-6-amine], the IC50 in assay [1] is below 10 nM; in assay [2] it was below 10 nM; in assay [3] it was 10 to 100 nM.

With `CCNc1cc2c(cn1)c(C1CCN(CCOC)CC1)nn2[C@H]1CC[C@@H](Oc2nccc(C(F)(F)F)c2F)CC1` [Example 327, N-ethyl-1-((1s,4s)-4-((3-fluoro-4-(trifluoromethyl)pyridin-2-yl)oxy)cyclohexyl)-3-(1-(2-methoxyethyl)piperidin-4-yl)-1H-pyrazolo[4,3-c]pyridin-6-amine], the IC50 in assay [1] was below 10 nM; in assay [2], below 10 nM; in assay [3], 10 to 100 nM.

For the molecule `CCNc1cc2c(cn1)c(C1CCN(C3CCN(C)CC3)CC1)nn2[C@H]1CC[C@@H](Oc2nccc(C(F)(F)F)c2F)CC1` [Example 328, N-ethyl-1-((1s,4s)-4-((3-fluoro-4-(trifluoromethyl)pyridin-2-yl)oxy)cyclohexyl)-3-(1′-methyl-[1,4′-bipiperidin]-4-yl)-1H-pyrazolo[4,3-c]pyridin-6-amine], the half-inhibitory concentration (IC50) in assay [1], in assay [2] and in assay [3] was below 10 nM in each case.

In the case of `CCNc1cc2c(cn1)c(C1CCN(C(=O)C(C)C)CC1)nn2[C@H]1CC[C@@H](Oc2nccc(C(F)(F)F)c2F)CC1` [Example 329, 1-(4-(6-(ethylamino)-1-((1s,4s)-4-((3-fluoro-4-(trifluoromethyl)pyridin-2-yl)oxy)cyclohexyl)-1H-pyrazolo[4,3-c]pyridin-3-yl)piperidin-1-yl)-2-methylpropan-1-one], the IC50 in assay [1] is below 10 nM; in assay [2] it was below 10 nM; in assay [3] it was 10 to 100 nM.

For the molecule `CCNc1cc2c(cn1)c(N1CCOCC1)nn2[C@H]1CC[C@@H](Oc2nccc(C(F)(F)F)c2F)CC1` [Example 330, N-ethyl-1-((1s,4s)-4-((3-fluoro-4-(trifluoromethyl)pyridin-2-yl)oxy)cyclohexyl)-3-morpholino-1H-pyrazolo[4,3-c]pyridin-6-amine], the IC50 in assay [1] was below 10 nM; in assay [2], below 10 nM; in assay [3] it was 10 to 100 nM.

In the case of `CCNc1cc2c(cn1)c(N1CCN(C)CC1)nn2[C@H]1CC[C@@H](Oc2nccc(C(F)(F)F)c2F)CC1` [Example 331, N-ethyl-1-((1s,4s)-4((3-fluoro-4-(trifluoromethyl)pyridin-2-yl)oxy)cyclohexyl)-3-(4-methylpiperazin-1-yl)-1H-pyrazolo[4,3-c]pyridin-6-amine], the IC50 in assay [1], in assay [2] and in assay [3] was below 10 nM in each case.

Consider `CCNc1cc2c(cn1)c(N1CCC(OC)CC1)nn2[C@H]1CC[C@@H](Oc2nccc(C(F)(F)F)c2F)CC1` [Example 333, N-ethyl-1-((1s,4s)-4((3-fluoro-4-(trifluoromethyl)pyridin-2-yl)oxy)cyclohexyl)-3-(4-methoxypiperidin-1-yl)-1H-pyrazolo[4,3-c]pyridin-6-amine], for which the IC50 in assay [1], in assay [2] and in assay [3] was below 10 nM each time.

For the molecule `CCNc1cc2c(cn1)c(N1CC[C@H](N(C)C)C1)nn2[C@H]1CC[C@@H](Oc2nccc(C(F)(F)F)c2F)CC1` [Example 335, 3-((S)-3-(dimethylamino)pyrrolidin-1-yl)-N-ethyl-1-((1s,4R)-4-((3-fluoro-4-(trifluoromethyl)pyridin-2-yl)oxy)cyclohexyl)-1H-pyrazolo[4,3-c]pyridin-6-amine], the IC50 in assay [1] was below 10 nM; in assay [2], below 10 nM; in assay [3] it was 10 to 100 nM.

For the molecule `CCNc1cc2c(cn1)c(N1CC[C@H](O)C1)nn2[C@H]1CC[C@@H](Oc2nccc(C(F)(F)F)c2F)CC1` [Example 336, (S)-1-(6-(ethylamino)-1-((1s,4R)-4-((3-fluoro-4-(trifluoromethyl)pyridin-2-yl)oxy)cyclohexyl)-1H-pyrazolo[4,3-c]pyridin-3-yl)pyrrolidin-3-ol], the IC50 in assay [1] is below 10 nM; in assay [2], below 10 nM; in assay [3], 10 to 100 nM.

On to `CCNc1cc2c(cn1)c(N1CCC[C@H](NC)C1)nn2[C@H]1CC[C@@H](Oc2nccc(C(F)(F)F)c2F)CC1` [Example 338, N-ethyl-1-((1s,4R)-4-((3-fluoro-4-(trifluoromethyl)pyridin-2-yl)oxy)cyclohexyl)-3-((S)-3-(methylamino)piperidin-1-yl)-1H-pyrazolo[4,3-c]pyridin-6-amine], for which the IC50 is below 10 nM in assay [1], below 10 nM in assay [2] and 10 to 100 nM in assay [3].

Regarding `CCNc1cc2c(cn1)c(N1CC[C@@H](NC)C1)nn2[C@H]1CC[C@@H](Oc2nccc(C(F)(F)F)c2F)CC1` [Example 339, N-ethyl-1-((1s,4S)-4-((3-fluoro-4-(trifluoromethyl)pyridin-2-yl)oxy)cyclohexyl)-3-((R)-3-(methylamino)pyrrolidin-1-yl)-1H-pyrazolo[4,3-c]pyridin-6-amine], the 50% inhibitory concentration (IC50) in assay [1], in assay [2] and in assay [3] was below 10 nM each time.

On to `CCNc1cc2c(cn1)c(N1CC3COCC3C1)nn2[C@H]1CC[C@@H](Oc2nccc(C(F)(F)F)c2F)CC1` (stereo partly drawn) [Example 342, N-ethyl-1-((1s,4s)-4((3-fluoro-4-(trifluoromethyl)pyridin-2-yl)oxy)cyclohexyl)-3-(tetrahydro-1H-furo[3,4-c]pyrrol-5(3H)-yl)-1H-pyrazolo[4,3-c]pyridin-6-amine], for which the figures for the IC50 in assay [1], in assay [2] and in assay [3] were below 10 nM, below 10 nM and 10 to 100 nM, respectively.

For `CCNc1cc2c(cn1)c(N1CCNCC1)nn2[C@H]1CC[C@@H](Oc2nccc(C(F)(F)F)c2F)CC1` [Example 343, N-ethyl-1-((1s,4s)-4((3-fluoro-4-(trifluoromethyl)pyridin-2-yl)oxy)cyclohexyl)-3-(piperazin-1-yl)-1H-pyrazolo[4,3-c]pyridin-6-amine], the IC50 in assay [1], in assay [2] and in assay [3] was below 10 nM throughout.

For `CCNc1cc2c(cn1)c(N1CCC(NC)CC1)nn2[C@H]1CC[C@@H](Oc2nccc(C(F)(F)F)c2F)CC1` [Example 344, N-ethyl-1-((1s,4s)-4((3-fluoro-4-(trifluoromethyl)pyridin-2-yl)oxy)cyclohexyl)-3-(4-(methylamino)piperidin-1-yl)-1H-pyrazolo[4,3-c]pyridin-6-amine], the 50% inhibitory concentration (IC50) in assay [1] is below 10 nM; in assay [2] it was below 10 nM; in assay [3] it was 10 to 100 nM.

As for `CCNc1cc2c(cn1)c(N1CCC(N(C)C)CC1)nn2[C@H]1CC[C@@H](Oc2nccc(C(F)(F)F)c2F)CC1` [Example 345, 3-(4-(dimethylamino)piperidin-1-yl)-N-ethyl-1-((1s,4s)-4-((3-fluoro-4-(trifluoromethyl)pyridin-2-yl)oxy)cyclohexyl)-1H-pyrazolo[4,3-c]pyridin-6-amine], the IC50 in assay [1] was below 10 nM; in assay [2], below 10 nM; in assay [3], 10 to 100 nM.
